The subject of data set [1] is H. pylori 26695 strain cells. The data set is described as follows: Cellular uptake (accumulation test), UV absorption detection. As to conditions: 8 h.
Procedure: Cellular uptake of PNP inhibitors, formycin A (FA) and formycin B (FB), and the control compound, metronidazole (MTZ), was determined using the approach described by Zhou et al. ([2015]) for E. coli and Pseudomonas aeruginosa, adapted to conditions suitable for H. pylori cell growth. This method measures the change of extracellular drug concentration using LC–MS detection.
Overnight cultures of H. pylori wild-type 26695 strain were grown by shaking (120 rpm) at 37 °C under microaerophilic conditions (5% O2, 10% CO2, 85% N2) in BHI medium (37 g/L) supplemented with 10% Fetal Bovine Serum and 1% Helicobacter pylori Selective Supplement. Cells were collected by centrifugation (5 min at 8000 × g at room temperature). The supernatant was decanted and the cell pellets were suspended in F12 medium (with L-glutamine and sodium bicarbonate) and centrifuged again. The supernatant was decanted again and cell pellets were resuspended in such a volume of F12 medium to obtain an OD600 of 4.0. F12 medium was selected for experiments because it is a minimal medium of defined composition and is suitable for measurements on MS.
(§3) The accumulation test was carried out in 24-deep-well 2 mL flat-bottomed plates, all in a final volume of 1 mL. Three types of samples were used, generated by mixing the following components in a 1:1 ratio: (1) concentrated and resuspended cells in F12 medium, (2) a solution of the appropriate concentration of a test compound in F12 medium, (3) F12 medium.
The final concentrations of the tested compounds were 350 µM and 35 µM for formycin A and formycin B, and 35 μM for hadacidin. One set of three replicate samples was incubated at 37 °C, and the other set was incubated at 4 °C. Samples were taken at the start of the accumulation test, to check the concentration of the inhibitor at the start (named “Inhibitor_start,” “H. pylori + inhibitor_start”), then after 4 and 8 h of incubation at both temperatures. The obtained samples were centrifuged at 8000 × g for 5 min at 4 °C. The supernatant was collected for the LC–MS analysis (used for MTZ, FA, and FB uptake), UV absorption measurements (used for FA and FB uptake), and AdSS and PNP inhibition analysis (used for Hada and FB uptake).
For cellular uptake of formycin A and formycin B, UV absorption was additionally used as a detection method. […] Nevertheless, there is some overlap between these spectra, and because of that, selective observation of formycins absorption is not possible. Moreover, during the cellular uptake experiment, H. pylori cells may take some UV absorbing nutrients from the medium, as well as release some metabolic products that also absorb in the UV region. Therefore, in the cellular uptake experiment, correction for absorption caused by these processes was introduced by including samples containing just H. pylori cells in F12 medium, incubated for 4 and 8 h at both temperatures, and subtracting absorption spectra of such supernatants.
Samples in this case were the same as those evaluated by the LC–MS detection and by analysis of the inhibition of the PNP activity. The UV spectra of the supernatants, from experiments with 350 μM and at 35 μM inhibitor concentration, diluted with water 10 times and 2 times, respectively (with the absorbance of F12 medium, 10 times or 2 times diluted with water, as a reference), were measured. The absorbance at the most suitable wavelengths was used to calculate the formycin concentration. […]
Data set [2] relates to H. pylori ATCC 26695 strain. Kind of data set: MIC by broth microdilution and FICI of 1:1 combinations, strain 26695. In kind it is cell-based. The following applies: Helicobacter pylori, ATCC26695, 72 h, combinations 1:1 w/w given as inhibitor a/inhibitor b. The protocol: (§1) Minimal inhibitory concentration of inhibitors was determined by an in vitro broth microdilution assay (Knezevic et al. [2018]). Briefly, double-strength Brain heart infusion broth (BHI) was supplemented with yeast extract (2.5%), horse serum (5%), and IsoVitaleX (1%). In each well, twofold serial dilutions of inhibitors (from 1000 µg/mL to 7.8 μg/mL in a final volume) and an equal volume of inoculated double-strength BHI were added (approx. 1 × 10^6 CFU/mL in final volume). Amoxicillin was used as a positive control, and distilled water as a negative control. The microtiter plates were incubated at 37 °C under microaerobic conditions in moist atmosphere for 3 days. […] During the incubation, in wells with viable H. pylori urease produced by the bacteria converted urea into ammonia and carbon dioxide, changing the pH and color of a phenol red indicator in the medium (from orange to purple). The plates were examined visually for color change and OD560 was measured after 4 h in order to determine presence/absence of growth. The MIC is defined as the lowest concentration of a compound that inhibits visible growth, compared with the growth in the controls (in this case defined as presence/absence of color change). All experiments were performed in duplicate and in 3–6 independent tests.
(§2) In order to determine possible additive or even synergistic effect of inhibitors, a method with calculation of the fractional inhibitory concentration index (FICI) was used (Pillai et al, [2005]). A combination of two inhibitors was applied (w/w 1:1) in the final concentration 1 mg/mL and subsequently diluted. The FICI index was calculated as FICI = (MICA/MICa) + (MICB/MICb), where MICA = concentration of inhibitor a in combination with inhibitor b; MICa = MIC of inhibitor a, applied as a single agent; MICB = concentration of inhibitor b in combination with inhibitor a; and MICb = MIC of inhibitor b applied as a single agent. The results were interpreted as a synergistic effect if the FICI was ≤ 0.5; as an additive effect if 0.5 < FICI ≤ 1; an indifferent effect if 1 < FICI ≤ 4; and as an antagonistic effect if the FICI was > 4 (Pillai et al. [2005]).
(In broth dilution the organism is exposed to a series of concentrations in liquid medium.)

Another data set deals with H. pylori SS1 strain. The data set is described as follows: MIC by broth microdilution and FICI of 1:1 combinations, strain SS1. Type of data set: cell-based. As to conditions: Helicobacter pylori, SS1STRAIN, 72 h, combinations 1:1 w/w given as inhibitor a/inhibitor b. The protocol:
as §1, §2

The conditions of data set [3]: ref Giziewicz and Shugar [1977], Wierzchowski and Shugar [1982], Bzowska et al. [1992] (formycins), Gottlieb and Shaw [2013] (hadacidin), cited from earlier work; for pKa (first value): Hellgren et al. [1995] (metronidazole).
The subject of the next data set is E. coli PNP. Also noted: method as in Bzowska et al. [1992]. As to conditions: ref Bzowska et al. [1992]; cited from earlier work.
A short description of data set [4]: pKa values and ionic form at pH 7. In kind it is physicochemical. The source says: Table 3 Partition coefficients of the neutral and ionized forms, and pKa values of the tested compounds, and of metronidazole used as a control in the cellular uptake studies. Partition coefficients of the ionic forms observed at pH 7 are marked bold | column: Ionic form at pH 7

Data set [5] relates to H. pylori 26695 strain cells. The data set is described as follows: Cellular uptake (accumulation test), LC–MS detection. In kind it is cell-based. The protocol: Formycin A, formycin B, and metronidazole were quantified through the ultra-performance liquid chromatography–tandem mass spectrometry. Samples were analyzed on Waters Xevo TQ-S with a standard ESI ion source coupled to Waters Acquity I-class UPLC.
Calibration samples were prepared by spiking blank growth medium F12 by the tested inhibitor, formycin A, formycin B, or metronidazole solutions. Internal standards (IS) were used to improve the accuracy of the method. To each pipetted sample from a particular experiment, the same amount of IS was added. As a detector response, we considered the ratio of the analyte peak area (variable) to the internal standard peak area (constant). This allows compensation for signal changes due to a possible instability of the ion source. If the ionization efficiency changes, both compounds are affected, but the surface peak ratio is maintained. […] Samples and calibrators were precipitated using IS solution and injected on the instrument.
Calibration curves were acquired by plotting the concentration of the standards against the ratio of the analyte peak area to the IS peak area. The calibration curve for FA in low concentration (35 μM) consisted of 7 samples in the range from 0.23 to 37.5 μM (R^2 = 0.997); for FA in high concentration (350 μM), the curve consisted of 6 samples in the range from 3.7 to 374.7 μM (R^2 = 0.995); for FB in low concentration (35 μM), the curve consisted of 7 samples in the range from 0.291 to 46.5 μM (R^2 = 0.999); for FB in high concentration (350 μM), the curve consisted of 7 samples in the range from 2.91 to 465.0 μM (R^2 = 0.999); and for MTZ (0.5 μM), the calibration curve was 8 samples in the range from 0.584 to 584.2 nM (R^2 = 0.995).
Chromatography was run on Waters Acquity BEH C18, 1.7 μm, 2.1 mm × 50 mm analytical column thermostated at 70 °C. The separations were done using 2.5 min gradient method. Phase A was 0.1% formic acid in MilliQ water; phase B was 0.1% formic acid in acetonitrile. For formycins the gradient started at 5% B and increased linearly to 50% B in 1.6 min; at 1.8 min it returned to the starting condition for column equilibration. For metronidazole the gradient started at 5% B and increased linearly to 50% B in 1.3 min; at 2.0 min it returned to the starting condition for column equilibration. The flow rate was 600 μL/min in both methods. The retention time of FA was 0.42 min, FB was 0.45 min (see Fig. 4a, b), and MTZ 0.88 min.

In data set [6] the target is T1, purine nucleoside phosphorylase (PNP) from H. pylori 26695 strain (Helicobacter pylori, UniProt P56463). Also on record: made in house; method as in Narczyk et al. [2018]. As to conditions: H. pylori 26695 strain PNP; ref Narczyk et al. [2018]; cited from earlier work.
T1 sequence (P56463 whole entry): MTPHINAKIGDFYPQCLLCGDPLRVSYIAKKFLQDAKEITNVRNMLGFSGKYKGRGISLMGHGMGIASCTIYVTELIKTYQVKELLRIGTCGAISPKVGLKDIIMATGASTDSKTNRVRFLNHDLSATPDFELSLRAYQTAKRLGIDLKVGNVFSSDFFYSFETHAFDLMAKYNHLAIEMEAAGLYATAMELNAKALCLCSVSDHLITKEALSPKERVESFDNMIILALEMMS
Data set [7] deals with H. pylori 26695 strain cells. Kind of data set: Cellular uptake (accumulation test), detection by inhibition of the target enzyme (AdSS or PNP). In kind it is cell-based. The following applies: 8 h.
Procedure: Overnight cultures of H. pylori wild-type 26695 strain were grown by shaking (120 rpm) at 37 °C under microaerophilic conditions (5% O2, 10% CO2, 85% N2) in BHI medium (37 g/L) supplemented with 10% Fetal Bovine Serum and 1% Helicobacter pylori Selective Supplement. Cells were collected by centrifugation (5 min at 8000 × g at room temperature). The supernatant was decanted and the cell pellets were suspended in F12 medium (with L-glutamine and sodium bicarbonate) and centrifuged again. The supernatant was decanted again and cell pellets were resuspended in such a volume of F12 medium to obtain an OD600 of 4.0.
as §3
The final concentrations of the tested compounds were 350 µM and 35 µM for formycin A and formycin B, and 35 μM for hadacidin. One set of three replicate samples was incubated at 37 °C, and the other set was incubated at 4 °C. […]
where Km and Vmax are the Michaelis constant and maximal velocity, respectively, and Ki is the inhibition constant of the tested inhibitor, in our case hadacidin. […] These values, together with velocity measured for any tested supernatant, Cinhibitor_start , and velocity measured when only F12 medium is present, v, are sufficient to determine inhibitor concentration, Ctested , present in a tested supernatant, using Eq. (4), which is obtained by the rearrangement of Eq. (2) and Eq. (3):4 Ctested=Cinhibitor_start1/vtested-1/v/1/vinhibitor_start-1/v
The formycin B uptake was studied in the same way, but instead of AdSS, PNP was used, since it is the target enzyme for this inhibitor. […] Specific activity is expressed as units per mg of protein (U/mg).
Data set [8] has as its target T1, purine nucleoside phosphorylase (PNP) from H. pylori 26695 strain. Kind of data set: biochemical.
Procedure: (§4) Kinetic experiments with PNP, and also with AdSS, described in the section “AdSS and PNP inhibition detection of cellular uptake”, were performed on a double-beam UV/VIS spectrophotometer Cary 100, with thermostated Peltier cell holders (Varian: Agilent Technologies, Mulgrave, Vic., Australia). The inhibition constant was determined as the adjustable parameter in the global fitting of the competitive inhibition model to all data obtained, using the GraphPad Prism program (GraphPad Software, San Diego, CA, USA).
The target of data set [9] is adenylosuccinate synthetase (AdSS) from H. pylori 26695 strain. Also on record: method as in Bubić et al. [2018]. The following applies: H. pylori 26695 strain AdSS; ref Bubić et al. [2018]; cited from earlier work.
In data set [10] the target is T1, purine nucleoside phosphorylase (PNP) from H. pylori 26695 strain. The following applies: m^7Guo as variable substrate, global fit, 25 °C, pH 7.0, 50 mM phosphate.
Procedure: as §4
The next data set deals with P. falciparum PNP. Also noted: method as in Dziekan et al. [2019]. As to conditions: solution studies; ref Dziekan et al. [2019]; cited from earlier work.
[11] abbreviates: starting concentration 350 µM, UV absorption at 294 nm.
[12] abbreviates: H. pylori ATCC 26695, geometrical mean of repetitions.
[13] abbreviates: H. pylori SS1, geometrical mean of repetitions.
Where [14] appears, read: starting concentration 35 µM, LC–MS, 8 h incubation, Eq. (1).
Where [15] appears, read: starting concentration 350 µM, LC–MS, 8 h incubation, Eq. (1).

Each structure is given as a SMILES string. Where two headings read alike, the source gives them in different places.

One may read the MIC as the lowest concentration found to suppress growth. What is called pKa is the negative logarithm of the acid dissociation constant. As usually defined, the Ki is a dissociation constant, usually derived from enzyme kinetics or from competition with a known ligand. The term Km denotes the concentration of substrate that gives half-maximal velocity. Broadly, the Vmax is the rate approached at saturating substrate.

With `Nc1ncnc2c([C@@H]3O[C@H](CO)[C@@H](O)[C@H]3O)n[nH]c12` [Formycin A], the Intracellular accumulation in data set [1] (starting concentration 35 µM, UV absorption at 305 nm) is reported as 6.7 ± 0.6 µM; in data set [1] (setting [11]) it was 35.2 ± 7.1 µM; in data set [1] (starting concentration 350 µM, UV absorption at 305 nm, Eq. (1), no correction for metabolites), 22.2 ± 7.6 µM; in data set [5] (setting [14]) it was 15.9 ± 0.5 µM; in data set [5] (setting [15]) it was 29.5 ± 5.3 µM; in data set [5] (starting concentration 350 µM, LC–MS, 8 h incubation, Eq. (1), listed as formycin A) it was “up to 29.5 ± 5.3 µM”. Moreover, the MIC was not below 870 µg/mL in data set [2] (setting [12]), not below 3.1 mM in data set [2] (H. pylori ATCC 26695), more than 1000 µg/mL in the data set with H. pylori SS1 strain (setting [13]) and more than 3.5 mM with H. pylori SS1 strain (H. pylori SS1). For the same molecule, the “pKa (first value)” value in data set [3] was 4.6. In [3], the “pKa” value is given as 9.7. Further, the Ki in the data set on E. coli PNP was 5.3 ± 0.4 µM; in data set [6] it was 14 ± 1.7 µM. Also, the “Ionic form at pH 7” value in data set [4] is listed as “Neutral”.
Consider `O=c1[nH]cnc2c([C@@H]3O[C@H](CO)[C@@H](O)[C@H]3O)n[nH]c12` [Formycin B], for which the Intracellular accumulation in data set [1] (starting concentration 350 µM, UV absorption at 279 nm) is listed as 3.0 ± 9.2 µM; in data set [1] (setting [11]) it was 1.0 ± 7.4 µM; in data set [7] (starting concentration 350 µM, PNP inhibition detection) it was 20.2 ± 34.0 µM; in [5] (setting [14]), 2.5 ± 0.5 µM; in data set [5] (setting [15]) it was 7.1 ± 2.5 µM; in [5] (starting concentration 350 µM, LC–MS, 8 h incubation, Eq. (1), listed as formycin B) it was “up to 7.1 ± 2.5 µM”. In addition, the MIC was more than 1000 µg/mL in data set [2] (setting [12]), more than 3.7 mM in [2] (H. pylori ATCC 26695), not below 397 µg/mL in the data set with H. pylori SS1 strain (setting [13]) and not below 1.5 mM with H. pylori SS1 strain (H. pylori SS1). The “pKa (first value)” value in data set [3] is 0.9. In data set [3], the “pKa” value is listed as 8.6. In data set [8], this molecule returned a Ki of 0.96 ± 0.08 µM. Further, the “Ionic form at pH 7” value in data set [4] is given as “Neutral”.
Consider `O=CN(O)CC(=O)O` [Hadacidin], for which the MIC in data set [2] (setting [12]) is more than 1000 µg/mL; in [2] (H. pylori ATCC 26695), more than 8.4 mM; in the data set with H. pylori SS1 strain (setting [13]), more than 1000 µg/mL; in the data set on H. pylori SS1 strain (H. pylori SS1) it was more than 8.4 mM. The Intracellular accumulation in [7] (starting concentration 35 µM, AdSS inhibition detection) is listed as 4.9 ± 4.1 µM; in [7] (starting concentration 35 µM, AdSS inhibition detection, listed as hadacidin) it was “does not enter H. pylori cells”. Also, in data set [3], the “pKa (first value)” value is 3.5. The “pKa” value in [3] is listed as 9.4. Besides, the Ki in [9] is 0.19 ± 0.02 µM. For the same molecule, in [4], the “Ionic form at pH 7” value is “Anion”.
Regarding `Cc1ncc([N+](=O)[O-])n1CCO` [Metronidazole], in data set [4], the “Ionic form at pH 7” value was “Neutral”. Moreover, the Intracellular accumulation in [5] (Helicobacter pylori, 8 h, 0.5 µM) was 0.37 ± 0.01 µM.
As for `C[n+]1cn([C@@H]2O[C@H](CO)[C@@H](O)[C@H]2O)c2nc(N)[nH]c(=O)c21` [m^7Guo, 7-Methylguanosine], in [10], the Michaelis-Menten constant (Km) came to 0.0463 ± 0.0044 mM and the Vmax was found to be 12.5 ± 0.5 µmol/min/mg.
In the case of `C=C[C@H]1C[N@@]2CC[C@H]1C[C@H]2[C@H](O)c1ccnc2ccc(OC)cc12` [quinine], the “Binding affinity to P. falciparum PNP” value in the data set on P. falciparum PNP is recorded as “low nanomolar affinity”.
